Data: patent publication US20160067272A1, “METHODS FOR TREATING IMMUNE DISEASES” (priority 2013, published 2016)
“Also recorded” adds a separate entry of the source.

Legend:
EAE in C57BL/6 mice = assay: EAE mouse model (behavioral score, splenic CD4+ T cells, spinal cord histology); type: in vivo
Description: Thus, the inventors used the experimental autoimmune encephalomyelitis (EAE) mouse model to study the impact of NAD^+, in vivo, on IL-10, Th1, Th17 and Treg cells in vivo. […] Next, the mechanisms by which NAD^+ protected from EAE in vivo were investigated, in particular its impact on IL-10 cytokine, Th1, Th17 and Tregs. Spleens were isolated from mice treated with NAD^+ or with a placebo solution 15 days after MOG immunization and CD4^+ T cell cytokine expression profile was analyzed by flow cytometry.
To assess the clinical efficacy of NAD^+ as a potential robust therapeutic, a group of mice that developed severe clinical symptoms of EAE (e.g., bilateral hindlimb paresis) was subjected to a daily NAD^+ treatment 15 days after MOG immunization.
Thus, the mechanism of how NAD^− treatment was able to reverse EAE progression was investigated. A previous study reported that nicotinamide (Nam) an NAD biosynthesis precursor can protect from myelin degradation and axon degeneration^43. The results described herein indicate that NAD^+ administered after the disease onset was able to reverse the progression of EAE. Thus, the inventors assessed whether NAD^+ was able to reverse the clinical symptoms of EAE by protecting axon from degeneration and whether NAD^+ had the capacity to promote myelin regeneration. […] Moreover, demyelination and axon loss were assessed with antibodies to myelin basic protein (MBP/SMI-9) and neurofilament (NF200), respectively, in all three groups (FIG. 5A-5F). Consistent with H&E and luxol blue findings, a significant reduction in both MBP staining depicting demyelination and axon loss evidenced by reduced NF 200 staining was very prominent in the group of mice treated with a placebo solution (FIG. 5A and 5D) when compared to the daily NAD^| treated group (FIG. 5B and 5E) and with mice treated with NAD+ after develop hindlimb paralysis (15 days after MOG immunization) (FIG. 5C and 5F).
EAE was induced in 10-week-old C57BL/6 mice using Hooke Labs EAE induction kit (EK-2110) according to manufacturer's instructions. […] For NAD^+ treatment mice received a daily intraperitoneal injection (60 mg in 100 μl in PBS) or a placebo solution (100 μl of PBS) at the same day than MOG immunization. Mice were sacrificed at day 18 and single cell suspension was obtained from spleens for flow cytometry analysis. To test whether NAD^+ was able to reverse the development of EAE, another group of mice was treated daily (for a period of 10 days) with NAD^+ (60 mg/mouse) or a placebo solution 15 days after MOG immunization when mice were scored 3 with a bilateral hindlimb paresis. EAE disease progression was monitored. For Tph-1 or CA3 inhibition, mice received daily intraperitoneal injections (simultaneous to NAD^−) of p-Chlorophenylalanine (1 ml of a 10 mM solution stock, catalog number 0938, Tocris Bioscience) or N-[[[(1S)-1-Carboxy-3-methylbutyl]amino]carbonyl]-L-glutamic acid (100 μl of a 100 mM solution stock, ZJ 43 catalog number 2675,Tocris Bioscience), respectively.

NOD/Schilt mice = assay: Type 1 diabetes mouse model; type: in vivo
Description: NOD/Schilt mice were used to assess the role of NAD+ as a treatment for Type I Diabetes (T1D). By the 20th week, […] started consistently rising above the normal average. By week 25, […] were detected over 600 mg/dL. These levels were consistently high for 1 week before treatment with NAD+ was initiated. Treatment with NAD+ was given daily at 40 mg per mouse.
It is important to note that most T1D studies begin treating diabetic animals when glucose levels reach 250 mg/dl or greater for 2 consecutive days.

[1] = test system: Fully MHC-mismatched tail skin allografts in mice; assay: Skin transplantation model; type: in vivo, mouse
Description: More importantly, in transplantation nTregs promote allograft survival while Th17 cells enhance allograft rejection^44-45. Thus, to study, in vivo, the impact of NAD^+ on nTregs and Th17 cells a transplant mouse model was used. Fully MHC-mismatched C57BL/6 (H2^b) tail skin allografts were transplanted onto DBA/2 (H2^d) mice that received daily intraperitoneally a solution containing NAD^+ or a placebo solution (PBS) and graft survival was monitored. […] Therefore, NAD^+ treatment was expected to promote allograft rejection. […] Recipient mice were evaluated by day 8 and the frequency of nTregs CD4^+CD25^+Foxp3^+ and CD4^+IL17-A^+ cells was assessed (FIG. 14B). […] Next, mechanisms by which NAD^+ could promote nTreg conversion into Th17 cells and allograft survival at the same time, e.g., two paradoxes, were assessed. Strikingly, when compared to the control group, more than 60% of CD4^+ T cells of NAD^+ treated mice were IL-10^+ producing cells (FIG. 14B). It is known that IL-10 is a robust immunosuppressive cytokine^46. Therefore, it was tested whether the allograft survival observed in recipient mice treated with NAD^| was the results of a systemic increase of IL-10 production. Thus, WT and IL-10^−/− mice (on a C57BL6/ background) received a BDA skin transplant and were treated with NAD^|.
Full-thickness tail skin grafts (˜1 cm^2) were procured from C57BL/6 mice and engrafted onto the dorsolateral thoracic wall of DBA/2 recipient mice using interrupted 5-0 Vicryl sutures. NAD^+ (100 μl of a solution containing 10 mg in PBS), or PBS (100 μl) were injected intraperitoneally and grafts were covered with gauze and adhesive bandage for 5 days. Graft survival was then monitored daily and rejection was defined as graft necrosis of 100%. Two investigators blinded for the particular experimental groups assessed graft survival independently. Eight days after transplantation, single-cell leukocyte suspensions were obtained from spleens procured from recipient mice to perform re-stimulation (with PMA and Ionomycin for 2hrs) and staining for surface and intracellular antigens as described above.

[2] = MOG-immunized mice, daily i.p. NAD+ from day of immunization
[3] = daily NAD+ and NAD+ from 15 days after MOG immunization
[4] = spleen, EAE mice, daily NAD+ vs placebo, flow cytometry
[5] = recipient spleen, day 8, NAD+ vs placebo

NC(=O)c1ccc[n+]([C@@H]2O[C@H](COP(=O)([O-])OP(=O)(O)OC[C@H]3O[C@@H](n4cnc5c(N)ncnc54)[C@H](O)[C@@H]3O)[C@@H](O)[C@H]2O)c1 [NAD+, nicotinamide adenine dinucleotide]
spinal cord inflammatory infiltrate, myelin loss and axonal injury (LFB and H&E stainings) (EAE in C57BL/6 mice; EAE mice treated daily with NAD+): remained free of inflammatory infiltrate, myelin loss, and axonal injury | EAE (behavioral score) (EAE in C57BL/6 mice; [2]): protected against EAE | paralysis (EAE in C57BL/6 mice; [2]): no sign of paralysis | spinal cord inflammatory infiltrate, myelin loss and axonal injury (LFB and H&E stainings) (EAE in C57BL/6 mice; NAD+ started 15 days after MOG immunization (after hindlimb paralysis)): did not show inflammatory infiltrate, myelin loss, and axonal injury | myelination positive area (MBP), spinal cord (EAE in C57BL/6 mice; [3]): significant protection and recovery | neurofilament positive area (NF200), spinal cord (EAE in C57BL/6 mice; [3]): significant protection and recovery | time of treatment until bilateral hindlimb paresis abolished (EAE in C57BL/6 mice; daily NAD+ started 15 days after MOG immunization): ≤ 10 days | progression of EAE (EAE in C57BL/6 mice; daily NAD+ started 15 days after MOG immunization (bilateral hindlimb paresis), vs placebo): reversed the progression of the disease | development of EAE (EAE in C57BL/6 mice; daily NAD+, after 25 days): did not develop EAE | systemic IL-10 cytokine production by CD4+IFNγ+ cells (EAE in C57BL/6 mice; spleen, EAE mice, daily NAD+ vs control group, flow cytometry): dramatically enhanced | IFNγ production by CD4+ T cells (EAE in C57BL/6 mice; [4]): promoted | Th17 response (EAE in C57BL/6 mice; [4]): promoted a robust Th17 response | number of CD4+CD25+Foxp3+ cells (EAE in C57BL/6 mice; [4]): reduced | blood glucose levels (NOD/Schilt mice; diabetic mice (higher than 600 mg/dl), NAD+ daily 40 mg per mouse): much lower levels; also recorded: marked decrease | insulin levels (NOD/Schilt mice; diabetic mice (over 600 mg/dL), NAD+ daily 40 mg per mouse, 5 days after treatment): started to decline at a significant rate | activity of lethargic type 1 diabetic mice (NOD/Schilt mice; within 10 days of NAD+ treatment): became much more active and aggressive | visual sign of rejection ([1]; 13 days after transplantation, daily NAD+): no visual sign of rejection | allografts survived more than 18 days ([1]; C57BL/6 skin onto DBA/2 mice, daily i.p. NAD+): 66% | skin allograft survival ([1]; C57BL/6 skin onto DBA/2 mice, daily i.p. NAD+ vs control group): dramatic allograft survival | skin allograft survival in IL-10−/− mice ([1]; DBA skin onto IL-10−/− mice (C57BL/6 background), NAD+ treatment): abolished the allograft survival | frequencies of CD4+IL-17A+ cells [1, 5]: increased frequencies | frequency of CD4+CD25+Foxp3+ nTregs [1, 5]: reduced frequency
